# “And” between values parts separate entries of the source, which are not always exact repeats. Equal values may be shown once.
# Tested on: citric acid (1M) evoked cough in guinea pigs
# Assay: Citric acid (1M) aerosol-evoked coughs and sneezes in conscious guinea pigs after oral pre-treatment
# Format: in vivo, Male Dunkin Hartley guinea pigs
# Procedure: The guinea pig species used in one study was twenty four Male Dunkin Hartley guinea pigs, each weighing between 300 and 350 g, which were supplied by Marshall Bioresources Ltd, UK.
# A test compound, Ifenprodil, and Gefapixant (in powder form) were prepared and formulated by initially adding 100% propylene glycol at the required volume for the final treatment buffer. The additional buffer ingredients were added in a stepwise fashion, initially solutol and then captisol. Each ingredient was added in a volume equivalent to that which is required for the final volume of treatment buffer for the stock formulation.
# In particular, for Gefapixant, this was 0.7 mg/mL, a concentration that delivers 3.5 mg/Kg in a dose volume of 5 mL/Kg. For Ifenprodil, this was 0.3 mg/mL, a concentration that delivers 1.5 mg/Kg in a dose volume of 5 mL/Kg.
# Prior to the addition of each buffer ingredient, the test compound formulations were sonicated for 15 min using a Branson 1510 Sonicator. Afterwards, the initial formulation of the test compound and Gefapixant were diluted with a prepared buffer vehicle to provide additional dosing formulations. This was 0.01 to 0.2 mg/ml, preferably 0.06 mg/mL, a dose that delivers 0.3 mg/Kg in a dose volume of 5 mL/Kg.
# The final test compound buffer vehicle comprised of 10:10:80 mix of propylene glycol:20% Solutol in PBS:5% Captisol in PBS.
# All final test and control formulations were sonicated for 30 min prior to dosing to generate an even suspension or to ensure that the formulation had visibly dissolved.
# The animals were first pre-treated (5 mL/Kg, p.o.) with the vehicle, the test compound, or Gefapixant prior to tussive agent (citric acid) exposure, using the amounts set out in Table 1 below. In each case, the route of administration of the treatment was oral.
# Animals receiving Gefapixant (3.5 mg/Kg) were dosed 2 hours prior to tussive agent exposure. Animals receiving Ifenprodil (1.5 mg/Kg) were dosed 30 minutes prior to tussive agent exposure.
# 10 min prior to the tussive evaluation, each animal was individually placed into a purpose built exposure chamber with a supplied airflow through a nebuliser of 2 L/min, and allowed to settle into its new environment.
# Following the acclimatisation period, each animal was then exposed for 10 min to an aerosol of 1M citric acid using an ultrasonic nebuliser (Aerogen) set at a nominal liquid consumption rate of 0.6 mL/min.
# Coughs and sneezes elicited during the 10 minute aerosol of 1M citric acid, and a subsequent 5 minute observation period, were recorded manually to monitor the animal's welfare. […] The data was analysed for onset of cough, cough numbers and frequency, and sneezes.
# The following measurements and assessments were taken for each guinea pig: • Mean total number of coughs evoked in each treatment group • Mean onset of first cough in each group • Mean number of coughs per minute during citric acid exposure in each treatment group
# Inter-group deviations were statistically analyzed by a one-way analysis of variance (ANOVA). In the case of significant difference in the mean values among the different levels of treatment, comparisons versus the citric acid vehicle group were carried out using the Dunnett's test. p<0.05 was considered statistically significant.
# [1] = Mean of n=6 animals, 10 min Citric acid (1M) exposure, Gefapixant 3.5 mg/Kg p.o., Ifenprodil 1.5 mg/Kg
# [2] = Mean of n=6 animals, Post Exposure (5 mins) after 10 min Citric acid (1M), Gefapixant 3.5 mg/Kg p.o., Ifenprodil 1.5 mg/Kg
# [3] = Total of n=6 animals, 10 min Citric acid (1M) exposure, Gefapixant 3.5 mg/Kg p.o., Ifenprodil 1.5 mg/Kg
# [4] = Total of n=6 animals, Post Exposure (5 mins) after 10 min Citric acid (1M), Gefapixant 3.5 mg/Kg p.o., Ifenprodil 1.5 mg/Kg
# [5] = individual animals (ID 1-6), 10 min Citric acid (1M) exposure, Gefapixant 3.5 mg/Kg p.o., Ifenprodil 1.5 mg/Kg
# [6] = individual animals (ID 1-6), Post Exposure (5 mins) after 10 min Citric acid (1M), Gefapixant 3.5 mg/Kg p.o., Ifenprodil 1.5 mg/Kg
compound,measurement,setting,value
COc1cc(C(C)C)c(Oc2cnc(N)nc2N)cc1S(N)(=O)=O [Gefapixant],"Total Coughs, Mean","10 min citric acid (1M) exposure + 5 min post exposure, group mean, n=6",23.67
same,"Total Coughs, individual animal","10 min citric acid (1M) exposure + 5 min post exposure, individual animals 1-6",16 and 26 and 24 and 23 and 33 and 20
same,average number of coughs per animal (total number of coughs),"10 min citric acid (1M) exposure + 5 min recovery, Gefapixant 3.5 mg/Kg p.o. 2 hrs prior, Ifenprodil 1.5 mg/Kg p.o. 30 min prior, n=6",23.67 coughs per animal
same,reduction in mean cough frequency vs untreated control,"Ifenprodil 1.5 mg/kg (p<0.01), Gefapixant 3.5 mg/kg (p<0.05)",20%
same,"Sneezes, Observation Period 0-1, group Mean",[1],0.2
same,"Sneezes, Observation Period 1-2, group Mean",[1],0.3
same,"Sneezes, Observation Period 2-3, group Mean",[1],0.3
same,"Sneezes, Observation Period 3-4, group Mean",[1],0.2
same,"Sneezes, Observation Period 4-5, group Mean",[1],0.5
same,"Sneezes, Observation Period 5-6, group Mean",[1],0.5
same,"Sneezes, Observation Period 6-7, group Mean",[1],0.5
same,"Sneezes, Observation Period 7-8, group Mean",[1],0.0
same,"Sneezes, Observation Period 8-9, group Mean",[1],0.5
same,"Sneezes, Observation Period 9-10, group Mean",[1],0.2
same,"Sneezes, Observation Period 10-11, group Mean",[2],0.0
same,"Sneezes, Observation Period 11-12, group Mean",[2],0.0
same,"Sneezes, Observation Period 12-13, group Mean",[2],0.0
same,"Sneezes, Observation Period 13-14, group Mean",[2],0.0
same,"Sneezes, Observation Period 14-15, group Mean",[2],0.0
same,"Total Sneezes, group Mean","Mean of n=6 animals, whole observation period 0-15 (10 min Citric acid (1M) exposure + Post Exposure 5 mins), Gefapixant 3.5 mg/Kg p.o., Ifenprodil 1.5 mg/Kg",3.17
same,"Sneezes, Observation Period 0-1, group Total",[3],1.0
same,"Sneezes, Observation Period 1-2, group Total",[3],2.0
same,"Sneezes, Observation Period 2-3, group Total",[3],2.0
same,"Sneezes, Observation Period 3-4, group Total",[3],1.0
same,"Sneezes, Observation Period 4-5, group Total",[3],3.0
same,"Sneezes, Observation Period 5-6, group Total",[3],3.0
same,"Sneezes, Observation Period 6-7, group Total",[3],3.0
same,"Sneezes, Observation Period 7-8, group Total",[3],0.0
same,"Sneezes, Observation Period 8-9, group Total",[3],3.0
same,"Sneezes, Observation Period 9-10, group Total",[3],1.0
same,"Sneezes, Observation Period 10-11, group Total",[4],0.0
same,"Sneezes, Observation Period 11-12, group Total",[4],0.0
same,"Sneezes, Observation Period 12-13, group Total",[4],0.0
same,"Sneezes, Observation Period 13-14, group Total",[4],0.0
same,"Sneezes, Observation Period 14-15, group Total",[4],0.0
same,first onset of cough,"citric acid (1M) exposure, Gefapixant 3.5 mg/Kg p.o., Ifenprodil 1.5 mg/Kg p.o., group mean, n=6",49.7 s
same,average number of sneezes per animal,"citric acid (1M) exposure, Gefapixant 3.5 mg/Kg p.o., Ifenprodil 1.5 mg/Kg p.o., n=6",3.17 sneezes per animal
same,"Onset (sec), Mean","citric acid (1M) exposure, group mean, n=6",49.7 s
same,"Onset (sec), individual animal","citric acid (1M) exposure, individual animals 1-6",72 s and 24 s and 64 s and 36 s and 32 s and 70 s
same,"Sneezes, Observation Period 0-1",[5],0 (5×) and 1
same,"Sneezes, Observation Period 1-2",[5],0 (4×) and 1 (2×)
same,"Sneezes, Observation Period 2-3",[5],1 (2×) and 0 (4×)
same,"Sneezes, Observation Period 3-4",[5],0 (5×) and 1
same,"Sneezes, Observation Period 4-5",[5],1 (3×) and 0 (3×)
same,"Sneezes, Observation Period 5-6",[5],0 (3×) and 1 (3×)
same,"Sneezes, Observation Period 6-7",[5],1 (3×) and 0 (3×)
same,"Sneezes, Observation Period 7-8",[5],0
same,"Sneezes, Observation Period 8-9",[5],1 (3×) and 0 (3×)
same,"Sneezes, Observation Period 9-10",[5],0 (5×) and 1
same,"Sneezes, Observation Period 10-11",[6],0
same,"Sneezes, Observation Period 11-12",[6],0
same,"Sneezes, Observation Period 12-13",[6],0
same,"Sneezes, Observation Period 13-14",[6],0
same,"Sneezes, Observation Period 14-15",[6],0
same,Total Sneezes,"individual animals (ID 1-6), whole observation period 0-15 (10 min Citric acid (1M) exposure + Post Exposure 5 mins), Gefapixant 3.5 mg/Kg p.o., Ifenprodil 1.5 mg/Kg",4 (2×) and 3 and 5 and 2 and 1
same,"Cough, observation period 0-1, Mean","min 0-1 of citric acid (1M) exposure, group mean, n=6",0.5
same,"Cough, observation period 0-1, individual animal","min 0-1 of citric acid (1M) exposure, individual animals 1-6",0 (3×) and 1 (3×)
same,"Cough, observation period 0-1, Total","min 0-1 of citric acid (1M) exposure, sum over 6 animals",3.0
same,"Cough, observation period 1-2, Mean","min 1-2 of citric acid (1M) exposure, group mean, n=6",2.0
same,"Cough, observation period 1-2, individual animal","min 1-2 of citric acid (1M) exposure, individual animals 1-6",1 (2×) and 3 (2×) and 2 (2×)
same,"Cough, observation period 1-2, Total","min 1-2 of citric acid (1M) exposure, sum over 6 animals",12.0
same,"Cough, observation period 2-3, Mean","min 2-3 of citric acid (1M) exposure, group mean, n=6",3.0
same,"Cough, observation period 2-3, individual animal","min 2-3 of citric acid (1M) exposure, individual animals 1-6",1 and 3 (2×) and 4 and 5 and 2
same,"Cough, observation period 2-3, Total","min 2-3 of citric acid (1M) exposure, sum over 6 animals",18.0
same,"Cough, observation period 3-4, Mean","min 3-4 of citric acid (1M) exposure, group mean, n=6",2.3
same,"Cough, observation period 3-4, individual animal","min 3-4 of citric acid (1M) exposure, individual animals 1-6",2 (3×) and 3 and 4 and 1
same,"Cough, observation period 3-4, Total","min 3-4 of citric acid (1M) exposure, sum over 6 animals",14.0
same,"Cough, observation period 4-5, Mean","min 4-5 of citric acid (1M) exposure, group mean, n=6",2.8
same,"Cough, observation period 4-5, individual animal","min 4-5 of citric acid (1M) exposure, individual animals 1-6",2 (2×) and 3 (3×) and 4
same,"Cough, observation period 4-5, Total","min 4-5 of citric acid (1M) exposure, sum over 6 animals",17.0
same,"Cough, observation period 5-6, Mean","min 5-6 of citric acid (1M) exposure, group mean, n=6",2.7
same,"Cough, observation period 5-6, individual animal","min 5-6 of citric acid (1M) exposure, individual animals 1-6",1 and 3 (3×) and 2 and 4
same,"Cough, observation period 5-6, Total","min 5-6 of citric acid (1M) exposure, sum over 6 animals",16.0
same,"Cough, observation period 6-7, Mean","min 6-7 of citric acid (1M) exposure, group mean, n=6",2.3
same,"Cough, observation period 6-7, individual animal","min 6-7 of citric acid (1M) exposure, individual animals 1-6",1 and 2 (3×) and 4 and 3
same,"Cough, observation period 6-7, Total","min 6-7 of citric acid (1M) exposure, sum over 6 animals",14.0
same,"Cough, observation period 7-8, Mean","min 7-8 of citric acid (1M) exposure, group mean, n=6",1.7
same,"Cough, observation period 7-8, individual animal","min 7-8 of citric acid (1M) exposure, individual animals 1-6",2 (4×) and 1 (2×)
same,"Cough, observation period 7-8, Total","min 7-8 of citric acid (1M) exposure, sum over 6 animals",10.0
same,"Cough, observation period 8-9, Mean","min 8-9 of citric acid (1M) exposure, group mean, n=6",2.0
same,"Cough, observation period 8-9, individual animal","min 8-9 of citric acid (1M) exposure, individual animals 1-6",2 (4×) and 3 and 1
same,"Cough, observation period 8-9, Total","min 8-9 of citric acid (1M) exposure, sum over 6 animals",12.0
same,"Cough, observation period 9-10, Mean","min 9-10 of citric acid (1M) exposure, group mean, n=6",1.7
same,"Cough, observation period 9-10, individual animal","min 9-10 of citric acid (1M) exposure, individual animals 1-6",2 (3×) and 3 and 0 and 1
same,"Cough, observation period 9-10, Total","min 9-10 of citric acid (1M) exposure, sum over 6 animals",10.0
same,"Cough, observation period 10-11, Mean","min 10-11, post exposure, group mean, n=6",1.5
same,"Cough, observation period 10-11, individual animal","min 10-11, post exposure, individual animals 1-6",1 (3×) and 2 (3×)
same,"Cough, observation period 10-11, Total","min 10-11, post exposure, sum over 6 animals",9.0
same,"Cough, observation period 11-12, Mean","min 11-12, post exposure, group mean, n=6",0.5
same,"Cough, observation period 11-12, individual animal","min 11-12, post exposure, individual animals 1-6",0 (3×) and 1 (3×)
same,"Cough, observation period 11-12, Total","min 11-12, post exposure, sum over 6 animals",3.0
same,"Cough, observation period 12-13, Mean","min 12-13, post exposure, group mean, n=6",0.5
same,"Cough, observation period 12-13, individual animal","min 12-13, post exposure, individual animals 1-6",1 (3×) and 0 (3×)
same,"Cough, observation period 12-13, Total","min 12-13, post exposure, sum over 6 animals",3.0
same,"Cough, observation period 13-14, Mean","min 13-14, post exposure, group mean, n=6",0.2
same,"Cough, observation period 13-14, individual animal","min 13-14, post exposure, individual animals 1-6",0 (5×) and 1
same,"Cough, observation period 13-14, Total","min 13-14, post exposure, sum over 6 animals",1.0
same,"Cough, observation period 14-15, Mean","min 14-15, post exposure, group mean, n=6",0.0
same,"Cough, observation period 14-15, individual animal","min 14-15, post exposure, individual animals 1-6",0
same,"Cough, observation period 14-15, Total","min 14-15, post exposure, sum over 6 animals",0.0
